The record followed here is patent publication US7161064B2, “Method for producing stably transformed duckweed using microprojectile bombardment” (North Carolina State University, priority 1997, dated 2007).

Assay [1] concerns L. minor callus cultures, strain 8744 and strain 8627. Description: Frond regeneration from L. minor callus cultures. It counts as cell-based, Lemna minor. Conditions: 8 weeks. As for the experimental part: The effect of medium composition on frond regeneration from L. minor callus cultures was also tested. Seven media formulations were tested: (1) water agar, (2) water agar with 100 μM adenine sulfate, (3) water agar with 10 μM BA, (4) water agar with 10 μM BA and 1 μM IBA, (5) half-strength SH, (6) half-strength SH with 10 μM BA, and (7) half-strength SH with 10 μM BA and 1 μM IBA. […] Callus was incubated on the seven different media for 8 weeks, with continual observation for the development of fronds.

For assay [2], the system named is Lemna gibba G3. Kind of assay: Callus induction from Lemna gibba G3 fronds on solid medium with plant growth regulators. Type of assay: cell-based. As to the method:
Duckweed fronds were grown in liquid Hoagland's medium (Hoagland and Snyder, Proc. Amer. Soc. Hort. Sci. 30, 288 (1933)) containing 3% sucrose for two weeks at 23° C. under a 16 hr light/8 hr dark photoperiod with light intensity of approximately 40 μmol/m^2·sec prior to experimentation. For callus induction, eighteen, 100 ml portions of Murashige and Skoog basal medium (Murashige and Skoog, Physiol. Plant. 15, 473 (1962)) containing 3% sucrose, 0.15% Gelrite and 0.4% Difco Bacto-agar were prepared with 2,4-D concentrations of 10, 20 and 50 μM and BA concentrations of 0, 0.01, 0.1, 1.0, 2.0, and 10.0 μM. All media were pH adjusted to 5.8, autoclaved at 121° C. for 20 minutes, cooled, and each 100 ml was poured into 4, 100 mm×15 mm petri dishes.
(§1) A three 2,4-D concentrations×six BA concentrations, full-factorial experimental design (18 treatments in total) with four replications, with one petri dish per replication and 5 fronds per petri dish was used. For callus induction, 5 individual duckweed fronds were placed abaxial side down on each plate of medium. The 72 plates were incubated at 23° C., for 27 days under a 16 hr light/8 hr dark photoperiod with light intensity of approximately 40 μmol/m^2·sec. After 27 days the duckweed tissue was transferred to fresh media of the same type and incubation was continued another 35 days under the same temperature and light culturing conditions.
Duckweed fronds were grown in liquid Hoagland's medium containing 3% sucrose for two weeks at 23° C. under a 16 hr light/8 hr dark photoperiod with light intensity of approximately 40 μmol/m^2·sec. prior to experimentation. For callus induction, forty 100 ml portions of Murashige and Skoog medium with 3% sucrose, 0.15% Gelrite, and 0.4% Difco Bacto-agar were prepared with dicamba concentrations of 10, 20, 30, 40, 50, 60, 80, 100 μM and BA concentrations of 0.01, 0.05, 0.1, 0.5, and 1.0 μM. All media were pH adjusted to 5.8, autoclaved at 121° C. for 20 minutes, cooled, and each 100 ml was poured into 4, 100 mm×15 mm petri dishes.
as §1, with “An eight dicamba concentrations×five BA” for “A three 2,4-D concentrations×six BA”, “design (40” for “design (18”, “The” for “The 72”, “After 28” for “After 27”, “another 45” for “another 35”
Duckweed fronds were grown in liquid Schenk and Hildebrandt medium containing 1% sucrose for two weeks at 23° C. under a 16 hr light/8 hr dark photoperiod with light intensity of approximately 40 μmol/m^2·sec prior to experimentation. For callus induction, three basal media were tested: Murashige and Skoog, Schenk and Hildebrandt, and N6. Benzyladenine was used as the cytokinin at a concentration of 1 μM. The auxin concentrations varied with auxin type. For the relatively strong auxins, 2,4-D and dicamba, concentrations were 0, 1, 5, 10 and 20 μM. For weak auxins, NAA and IBA, the concentrations were 0, 5, 10, 20 and 50 μM. For each medium dose-response experiment, 2 liters of basal medium were prepared with BA and the pH adjusted to 5.8. The volume was aliquoted as 20, 100 ml portions. To each of these portions, the appropriate amount of auxin was added and the medium was adjusted to 0.15% Gelrite, and 0.4% Difco Bacto-agar. The media were autoclaved for 30 minutes at 121° C., cooled and 4, 100 mm×15 mm petri dishes were poured from each 100 ml portion.
A 3 media×4 auxin×5 concentration combinations, 60 treatment, randomized dose-response experimental design was used. The design was replicated two times, with one petri dish per replication and 5 fronds per petri dish.

Assay [3] concerns Lemna gibba G3. Kind of assay: GUS expression in fronds after co-cultivation with Agrobacterium tumefaciens AT656 (histochemical staining). It counts as cell-based. As to the method: Duckweed fronds were grown on liquid Schenk and Hildebrandt medium containing 1% sucrose with and without 10 μM indoleacetic acid (IAA), a concentration sufficient to increase proliferation rate. Fronds were grown in 25 ml aliquots of medium in 125 ml flasks, at 23° C. under a 16 hr light/8 hr dark photoperiod with light intensity of approximately 40 μmol/m^2·sec. For co-cultivation, 500 ml of Schenk and Hildebrandt medium containing 1% sucrose, 0.8% agar, 20 mg/L acetosyringone, and with and without 10 μM indoleacetic acid was prepared, pH adjusted to 5.6, autoclaved at 121° C. for 30 minutes, and cooled. Filter-sterilized solutions of acetosyringone, and acetosyringone and indoleacetic acid were added to the cooled medium, to the final, appropriate concentrations. Twenty, 100 mm×15 mm petri dishes were poured from the cooled medium.
A randomized block, experimental design with 2 bacterial strain treatments×2 frond growth media, with 5 replications, with one petri dish per replication, and 20 fronds per petri dish was used. For inoculation, bacteria of each strain were separately resuspended as described in Example 21. For inoculation, individual fronds were separated from clumps, each turned abaxial side up and wounded with a sterile scalpel in the meristematic regions, then transferred to bacterial suspensions of either AT656 or EHA101pJR1, and incubated for 10–15 minutes. For co-cultivation, fronds were transferred to solid Schenk and Hildebrandt medium with 1% sucrose, 0.8% agar and 100 μM acetosyringone with and without 10 μM indoleacetic acid as described above, abaxial side down.
The fronds were co-cultivated for 4 days at 23° C. under a 16 hr light/8 hr dark photoperiod with light intensity of approximately 40 μmol/m^2·sec. The fronds from two plates from each of the four treatments were stained for GUS expression.
Lemna gibba G3 fronds were grown for two weeks on liquid. Schenk and Hildebrandt medium containing 1% sucrose and with or without 10 μM indoleacetic acid in 25 ml aliquots in 125 ml flasks, at 23° C. under a 16 hr light/8 hr dark photoperiod with light intensity of approximately 40 μmol/m^2·sec prior to experimentation. For co-cultivation, 900 ml of Schenk and Hildebrandt medium containing 1% sucrose, 0.8% agar, with and without 10 μM indoleacetic acid, and 20 mg/L acetosyringone was prepared, the pH was adjusted to 5.6, the medium autoclaved at 121° C. for 30 minutes, and cooled. Filter-sterilized solutions of acetosyringone and indoleacetic acid were added to the appropriate, final medium concentrations. Thirty-six, 100 mm×15 mm petri dishes were poured from the cooled medium. Three bacterial media: 1) AB minimal containing 1.6% agar (AB), Difco potato dextrose medium with 1.6% agar (PDA), and mannitol glutamine (Roberts and Kerr, Physiol. […]

Assay [4] concerns L. minor strains 8744 and 8627. Description: Callus induction from Lemna minor fronds, auxin and cytokinin type and concentration. It counts as cell-based. Particulars: MS medium, 6 weeks. As to the method: In the auxin type and concentration experiment, four auxins: 2,4-D, NAA, IBA and dicamba were tested, each at four concentrations: 2, 5, 10 and 20 μM, for their ability to induce callus formation from L. minor strains 8744 and 8627. The basal medium used was MS and media and experimental protocol was basically that followed in Example 10. Fronds used in this experiment were grown for 2 weeks prior to plating on callus induction medium under 3 different culture conditions: 1) SH medium without plant growth regulators, 2) F medium with 24 μM 2,4-D and 2 μM 2-iP, and 3) SH medium with 24 μM 2,4-D and 2 μM 2-iP. Fronds were separated, the roots cut off and then plated on induction medium. The fronds were incubated under conditions given in Example 8 for 6 weeks at which time cultures were evaluated for the presence or absence of callus induction, the degree to which the callus proliferated, and the basic morphology of the callus present.
In the cytokinin type and concentration experiment, four cytokinins: BA, kinetin, 2-iP, and thidiazuron were tested, each at five concentrations: 0.05, 0.1, 0.5, 1 and 5 μM, for their ability to induce callus formation from L. minor strains 8744 and 8627. The basal medium used was MS and the media and experimental protocol were basically as described in Example 11. Fronds used in this experiment were grown for 2 weeks prior to plating on callus induction medium under 3 different culture conditions: 1) SH medium without plant growth regulators, 2) F medium with 24 μM 2,4-D and 2 μM 2-iP, and 3) SH medium with 24 μM 2,4-D and 2 μM 2-iP. Fronds were separated, the roots cut off and then plated on induction medium. The fronds were incubated under conditions given in Example 8 for 6 weeks at which time cultures were evaluated for the presence or absence of callus induction, the degree to which the callus proliferated, and the basic morphology of the callus.

Setting [5] is: half-strength SH with 10 μM BA only.

Take `O=C(O)CCCc1c[nH]c2ccccc12` [IBA, indolebutyric acid]: the “effect on the timing or ability of callus to regenerate fronds” value in assay [1] (1 μM IBA added to medium with 10 μM BA) is reported as “had no effect”.
In the case of `O=C(O)Cc1cccc2ccccc12` [NAA, naphthaleneacetic acid], the “concentration giving the greatest callus induction” value in assay [2] (MS medium, 1 μM BA, five weeks) worked out at 10 µM.
On to `O=C(O)Cc1c[nH]c2ccccc12` [IAA, indoleacetic acid], for which the “effect on frequency of GUS expression after co-cultivation” value in assay [3] (fronds grown on 10 μM indoleacetic acid prior to inoculation, 4 days co-cultivation) is recorded as “increased the frequency of GUS expression”. Further, the “frequency of GUS expression in meristematic tissue” value in assay [3] (fronds grown on SH medium with indoleacetic acid, averaged over PDA and MGL bacterial media) is “approximately 17%”. The “co-cultivated fronds showing GUS expression” value in assay [3] (medium containing 10 μM IAA, 4 days co-cultivation (20% without IAA)) is given as 48%.
As for `COc1c(Cl)ccc(Cl)c1C(=O)O` [dicamba], the “concentration at which callus induction was observed” value in assay [4] (strain 8744, auxin experiment) is 20 µM. Also, in assay [2] (auxin with 1 μM BA, five weeks), the “compact Type I callus induction on MS medium” value is reported as “some degree of callus induction” and the “compact Type I callus induction on N6 medium” value was “produced callus”. In addition, the callus proliferation in assay [2] (dicamba 10-100 μM with BA 0.01-1.0 μM, Murashige and Skoog medium, 73 days) is on record as “callus proliferation was poor”. Besides, the “concentration above which callus proliferation did not occur” value in assay [2] (dicamba with BA 0.01-1.0 μM, Murashige and Skoog medium, 73 days) is “above 30 μM”.
Take `c1ccc(CNc2ncnc3nc[nH]c23)cc1` [BA, benzyladenine]: the callus induction in assay [4] (inducing auxin at 2, 5, 10, 20 μM, strains 8744 and 8627) is reported as “not observed”. In addition, in assay [1] (setting [5]), the “callus growth compared with half-strength SH without plant growth regulators” value is “callus growth was faster” and the “time to frond regeneration compared with half-strength SH” value is given as “regeneration took longer”.
Regarding `O=C(Nc1ccccc1)Nc1cnns1` [TDZ, thidiazuron], the “frequency of callus induction” value in assay [2] (cytokinin 0-5 μM with 20 μM 2,4-D, MS medium, five weeks) was “greatest frequency of callus induction”.
For the compound `OC[C@@H](O)[C@@H](O)[C@H](O)[C@H](O)CO` [mannitol], the “concentration in bacterial resuspension solution giving the highest frequencies of GUS expression” value in assay [3] (0, 0.2, 0.4, 0.6, 0.8 M tested, regardless of media, 4 days co-cultivation in the dark) is 0.6 M.
